The target of this test is Programmed cell death 1 ligand 1 (Homo sapiens, UniProt Q9NZQ7). The test can be described thus: Enzyme-Linked Immunosorbent Assay ELISA. As to the method:
96 Well plates were coated with […] of human PD-L1 (obtained from R&D) in PBS overnight at 4° C. The wells were then blocked with 2% BSA in PBS (W/V) with 0.05% TWEEN-20 for 1 hour at 37° C. The plates were washed 3 times with PBS/0.05% TWEEN-20 and the compounds were serial diluted (1:5) in dilution medium and added to the ELISA plates. Human PD-1 and biotin 0.3 μg/mL (ACRO Biosystems) were added and incubated for 1 hour at 37° C. then washed 3 times with PBS/0.05% TWEEN-20. A second block was performed with 2% BSA in PBS (W/V)/0.05% TWEEN-20 for 10 min at 37° C. and was washed 3 times with PBS/0.05% TWEEN-20. Streptavidin-HRP was added for 1 hour at 37° C. then washed 3 times with PBS/0.05% TWEEN-20. TMB substrate was added and reacted for 20 min at 37° C. A stop solution (2 N aqueous H2SO4) was added. The absorbance was read at 450 nm using a micro-plate spectrophotometer.
A general note: ELISA stands for enzyme-linked immunosorbent assay.
Chain of Programmed cell death 1 ligand 1 (Q9NZQ7 whole entry): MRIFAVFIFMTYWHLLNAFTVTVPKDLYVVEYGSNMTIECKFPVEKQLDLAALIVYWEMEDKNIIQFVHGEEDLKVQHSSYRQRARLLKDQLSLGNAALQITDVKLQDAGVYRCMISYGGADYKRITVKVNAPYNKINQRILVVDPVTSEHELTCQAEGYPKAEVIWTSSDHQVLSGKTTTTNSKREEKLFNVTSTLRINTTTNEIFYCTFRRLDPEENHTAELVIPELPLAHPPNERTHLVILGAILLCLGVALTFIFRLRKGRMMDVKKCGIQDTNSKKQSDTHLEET
A word on the IC50: it is the concentration at which inhibition is half-maximal. Higher therefore signals a need for much substance. On to `CCOc1cc(O[C@H]2CCc3c(-c4cccc(OCCCN5[C@H](C)CC[C@H]5C)c4C)cccc32)c(Cl)cc1CN1CCCC[C@H]1C(=O)O` [US10919852, Compound TABLE 1.381], for which the IC50 result is “in the range around 253 nM”.

On to `Cc1c(OCCCN2CC[C@H](F)C[C@@H]2C)cccc1-c1cccc2c1CC[C@@H]2Oc1cc(OCc2cc(C#N)cc(C#N)c2)c(CN[C@H]2CCC(=O)NC2)cc1Cl` [US10919852, Compound TABLE 1.341], for which the IC50 entry is “in the range around 253 nM”.

With `Cc1c(OCCCN2CCC(C)(F)CC2)cccc1-c1cccc2c1CC[C@@H]2Oc1cc(OCc2cc(C#N)cc(C#N)c2)c(CN[C@@H]2CCC[C@H]2O)cc1Cl` [US10919852, Compound TABLE 1.294], the IC50 entry was “in the range around 253 nM”.

Regarding `CCOc1cc(O[C@H]2CCc3c(-c4cccc(OCCCN5CCC5(C)C)c4C)cccc32)c(Cl)cc1CN1CC[C@H](C(=O)O)C1` [US10919852, Compound TABLE 1.412], the IC50 result was “in the range around 253 nM”.

Regarding `CC1(F)CCN(CCCOc2cccc(-c3cccc4c3CC[C@@H]4Oc3cc(OCc4cncc(C#N)c4)c(CN[C@H]4CCC(=O)NC4)cc3Cl)c2Cl)CC1` [US10919852, Compound TABLE 1.280], the IC50 result is “in the range around 253 nM”.

Values taken from BindingDB's records for patent US10919852 (Chemocentryx, 2021).
